Source: US20040192606A1, “Method of promoting angiogenesis” (priority 1995, published 2004)
Like-named read-outs stand apart in the source and are kept apart here.

Experiments:
[1] = test system: THP-1 cells; assay: VEGF protein secretion by THP-1 cells (ELISA of conditioned media); assay type: cell-based, human; details: for inhibition of relaxin-induced VEGF stimulation: PKA inhibitors used at or above their Ki doses, ELISA, data not shown; for VEGF induction: 17 nM (equivalent molar concentration to relaxin)
[2] = test system: THP-1 cells; assay: cAMP levels in THP-1 cells; assay type: cell-based, human
[3] = test system: rabbit corneal stroma; assay: Rabbit corneal assay (neo-capillary growth toward implanted hydron disc); assay type: in vivo
Protocol: (§1) In vivo activity for angiogenesis is determined by the rabbit corneal injection protocol and by the matrigel subcutaneous insert vascularization protocol.
Test and control material is mixed with hydron into a 0.1 cc disc (resembling a small contact lens). The disc is implanted into a rabbit corneal stroma micro pocket using appropriate anesthesia for the procedure. After one week, neo-capillary growth toward the disc is measured and scored (0-4) utilizing a standard anatomic grading scale. A score of 0 means no growth. A score of 1 means capillaries (one or two) just entering the corneal stroma from the limbus toward the pocket. A score of 3 means vessels have grown to the base of the implant. A score of 4 means vessels have grown around the implant.

[4] = test system: VEGF transcripts in THP-1 cells; assay: PCR and Southern blot analysis of steady state VEGF mRNA in THP-1 cells; assay type: cell-based, human
[5] = test system: mouse dorsum (matrigel plug); assay: Murine matrigel subcutaneous insert vascularization assay; assay type: in vivo
Protocol: as §1
Matrigel (Collaborative Biomedical, Bedford, Mass.) is a reconstituted basement membrane complex containing primarily laminin and type IV collagen. It is isolated from the Engelbreth-Holm-Swarm (EHS) murine tumor. At room temperature, matrigel is liquid; but when injected subcutaneously into a mouse it reconstitutes as a gel.
Test substance is mixed with matrigel (1%v/v media in 1 cc matrigel) at room temperature and then injected subcutaneously into a mouse dorsum (5 month old female Swiss-Webster). After one week, the mouse is sacrificed and the gel plug(s) harvested. Samples are fixed in buffered formalin, paraffin embedded, sectioned (4 μ) and H&E stained. The samples are scored 1 (positive), 0.5 (indeterminate) or 0 (negative).

[6] = test system: THP-1 cells; assay: Other effects on THP-1 cells (morphology, thymidine uptake, metalloproteinase expression, nitric oxide production); assay type: cell-based, human
[7] = Serum concentration of relaxin in ongoing clinical trials; assay type: in vivo, human
Protocol: While human dosage levels for treating depression have yet to be optimized for relaxin, generally, a daily dose is from about […] of body weight per day, preferably about […] μg/kg, and most preferably about 12.0 to 100.0 μg/kg. Generally it is sought to obtain a serum concentration of relaxin approximating or greater than normal circulating levels in pregnancy, i.e., 1.0 ng/ml, such as 0.5 to 50 ng/ml, preferably 1.0 to 20 ng/ml. […] Thus, for administration to a 70 kg person, the dosage range would be about 7.0 μg to 3.5 mg per day, preferably about […] to 2.1 mg per day, and most preferably about […] per day. The amount of relaxin administered will, of course, be dependent on the subject and the severity of the affliction, the manner and schedule of administration and the judgment of the prescribing physician.

In the case of CC(C)Cn1c(=O)n(C)c(=O)c2[nH]cnc21 [IBMX, isobutylmethylxanthing], the “Net VEGF Expr” value ([1]; Exp 1, 50 × 10^−6M, 24 h, net of placebo-treated control, mean ± SEM) is reported as 154 ± 46 pg/mL and the “Net VEGF Expr” value ([1]; Exp 2, 50 × 10^−6M, 8 h, net of placebo, mean ± SEM) is reported as 209 ± 20 pg/mL.
With CCCC(=O)Nc1ncnc2c1ncn2[C@@H]1O[C@@H]2COP(=O)(O)O[C@H]2[C@H]1OC(=O)CCC [dbcAMP, Dibutyryl cAMP] the “Net VEGF Expr” value ([1]; Exp 3, 10^−4M, 8 h, net of placebo, mean ± SEM) was 488 ± 27 pg/mL, the “Net VEGF Expr” value ([1]; Exp 3, 10^−5M, 8 h, net of placebo, mean ± SEM) was 142 ± 26 pg/mL and the “Net VEGF Expr” value ([1]; Exp 3, 10^−6M, 8 h, net of placebo) was -0- pg/ml.
In the case of O=S(=O)(NCCNC/C=C/c1ccc(Br)cc1)c1cccc2cnccc12 [H-89], the “inhibition of relaxin-induced VEGF stimulation” value (shortened to “inhibition”) [1] is reported as “failed to completely inhibit VEGF stimulation”.
For “insulin: member of the relaxin family, compared at 17 nM”, the “VEGF expression relative to that induced by relaxin” value ([1]; 17 nM) was “roughly 30%”.
In the case of Pertussis toxin, the “Net VEGF Expr” value ([1]; Exp 4, 1 μg/ml, 8 h, net of placebo, mean ± SEM) is reported as -0- pg/ml.
With “IGF-I: member of the relaxin family (Promega)” the VEGF induction [1] was “Neither IGF-I and IGF-II induced VEGF production”.
With relaxin the cAMP levels ([2]; relaxin treatment, dose not given) was “causes an increase in cAMP”, the “mean score of neo-capillary growth toward the disc (0-4 anatomic grading scale)” value ([3]; disc in rabbit corneal stroma micro pocket, after one week, n=8, standard error 0.5, placebo 0.6, P 0.08) was 1.5 and the “angiogenic activity (conclusion)” value ([3]; rabbit corneal assay) was “angiogenic”. The “time at which increase of VEGF transcripts is detectable” value ([4]; 10 ng/ml) was 30 min, the “increase of VEGF121, 165 and 189 PCR bands” value ([4]; 10 ng/ml, by 2 hours) was “roughly 2 fold” and the “intensity of VEGF transcript bands on Southern blot” value ([4]; 100 ng/ml) was “intensity of all bands is increased”. For the same compound, the “angiogenic activity (conclusion)” value ([5]; murine matrigel assay) was “angiogenic”, the “mean score of gel plugs (1 positive, 0.5 indeterminate, 0 negative)” value ([5]; subcutaneous matrigel in mouse, after one week, standard error 0.1, control 0.3, P 0.02) was 0.8 and the “time course of VEGF in conditioned media” value ([1]; 1 ng/ml and 100 ng/ml) was “increased in the conditioned media in roughly linear fashion up to at least 72 hours”. The “VEGF protein secretion (dose dependence)” value ([1]; 0.04-50 ng/ml, 8 hours) was “dose dependent manner”, the “Net VEGF Expr” value ([1]; Exp 2, 10 ng/ml, 8 h, net of placebo, mean ± SEM) was 161 ± 19 pg/mL and the “relaxin concentration at which VEGF protein secretion peaks” value ([1]; doses 0.04-50 ng/ml, 8 hours) was 1 ng/mL. The “morphological changes (adherence to plastic, clumping)” value [6] was “no observable morphological changes”, the serum concentration ([7]; dosage about 6.0 μg/kg, ±0.3) was “about 1.8 ng/ml” and the serum concentration ([7]; dosage about 12.0 μg/kg, ±0.6) was ~3.6 ng/mL. For the same compound, the serum concentration ([7]; dosage about 50 μg/kg, ±1.6) was ~11.8 ng/mL.
For CCCC(=O)Nc1nc2c(ncn2[C@@H]2O[C@@H]3COP(=O)(O)O[C@H]3[C@H]2OC(=O)CCC)c(=O)[nH]1 [dbcGMP, dibutyryl cGMP], the “Net VEGF Expr” value ([1]; Exp 3, 10^−6M-10^−4M (each dose), 8 h, net of placebo) was -0- pg/ml.
In the case of Nc1ncnc2c1ncn2C1CCCO1 (stereo not shown) [SQ22536], the “inhibition” value [1] is reported as “failed to completely inhibit VEGF stimulation”.
In the case of “IGF-II: member of the relaxin family (Promega)”, the VEGF induction [1] is reported as “Neither IGF-I and IGF-II induced VEGF production”.
For C[C@@H]1C[C@@H]([C@H](O)CC2CC(=O)NC(=O)C2)C(=O)[C@@H](C)C1 [cycloheximide, reference compound], the “effect on relaxin-induced increase of VEGF transcripts” value ([4]; added with recombinant human relaxin (H2)) was “did not interfere with or amplify this increase”.
In the case of CCCCCCCCCCCCCC(=O)O[C@@H]1[C@@H](C)[C@@]2(O)[C@@H](C=C(CO)C[C@]3(O)C(=O)C(C)=C[C@@H]23)[C@@H]2C(C)(C)[C@]12OC(C)=O [PMA, reference compound], the cAMP levels ([2]; 1 ng/ml, data not shown) is reported as “does not increase cAMP levels” and the “Net VEGF Expr” value ([1]; Exp 5, 1 ng/ml, 8 h, net of placebo, mean ± SEM) is reported as 342 ± 18 pg/mL.
In the case of Cholera toxin, the “Net VEGF Expr” value [1] is reported as 1278 ± 106 pg/mL.
In the case of C[C@]12CC[C@@H]3c4ccc(O)cc4CC[C@H]3[C@@H]1CC[C@@H]2O [17-β-estradiol], the “effect on relaxin VEGF stimulation compared to relaxin alone” value ([1]; 1 μM, simultaneously with relaxin or 48 hours pretreatment) is reported as “Neither treatment protocol resulted in a difference in VEGF stimulation”.
In the case of CCCCCCOC(=O)[C@]1(O)C[C@@H]2O[C@@]1(C)n1c3ccccc3c3c4c(c5c6ccccc6n2c5c31)C(=O)NC4 [KT5720], the “inhibition” value [1] is reported as “failed to completely inhibit VEGF stimulation”.
